Reference: patent US11339130B1 (Blade Therapeutics, Inc., priority 2016, dated 2022)
Read-outs that look alike come from different tables or passages of the source.

Experiments:
[1] = test system: Calpain activity in SH-SY5Y cells; assay: SH-SY5Y + AMC fluorescence assay (Suc-LLVY-AMC substrate); assay type: cell-based; conditions: read-out: SH-SY5Y + AMC IC50
[2] = test system: Calpain activity in SH-SY5Y cells (SBDP-150); assay: SH-SY5Y Spectrin western blot assay (SBDP-150 breakdown product, A23187-induced); assay type: cell-based; conditions: Homo sapiens, SH-SY5Y cells, read-out: SH-SY5Y Spectrin IC50
Human Calpain 2/NS1 = target: T1, Human Calpain 2/NS1 (Homo sapiens, UniProt P17655); assay: Calpain inhibition continuous fluorescence (FRET) assay, Human Calpain 2/NS1; assay type: biochemical; conditions: read-out: Human Calpain 2/NS1 IC50
T1 sequence (P17655 1-700): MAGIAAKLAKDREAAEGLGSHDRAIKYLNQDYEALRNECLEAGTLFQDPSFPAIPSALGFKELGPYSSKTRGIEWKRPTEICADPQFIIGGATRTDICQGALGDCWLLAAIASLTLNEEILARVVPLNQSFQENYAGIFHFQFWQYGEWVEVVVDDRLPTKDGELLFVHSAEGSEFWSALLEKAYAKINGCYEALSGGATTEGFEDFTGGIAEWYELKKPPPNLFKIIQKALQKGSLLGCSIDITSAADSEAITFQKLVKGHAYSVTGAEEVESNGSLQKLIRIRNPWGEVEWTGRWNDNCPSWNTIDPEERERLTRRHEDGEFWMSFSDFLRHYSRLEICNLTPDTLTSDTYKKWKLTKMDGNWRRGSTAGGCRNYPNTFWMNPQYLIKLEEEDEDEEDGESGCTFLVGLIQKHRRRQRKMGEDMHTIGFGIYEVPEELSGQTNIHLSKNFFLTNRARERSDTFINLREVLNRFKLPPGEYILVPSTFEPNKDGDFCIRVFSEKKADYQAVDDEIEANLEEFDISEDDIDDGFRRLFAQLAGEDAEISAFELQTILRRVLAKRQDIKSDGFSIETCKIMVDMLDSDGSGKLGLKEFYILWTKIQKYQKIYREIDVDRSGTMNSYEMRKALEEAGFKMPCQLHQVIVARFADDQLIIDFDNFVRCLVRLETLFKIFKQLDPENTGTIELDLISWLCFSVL
T1 sequence (P04632 1-268 partner): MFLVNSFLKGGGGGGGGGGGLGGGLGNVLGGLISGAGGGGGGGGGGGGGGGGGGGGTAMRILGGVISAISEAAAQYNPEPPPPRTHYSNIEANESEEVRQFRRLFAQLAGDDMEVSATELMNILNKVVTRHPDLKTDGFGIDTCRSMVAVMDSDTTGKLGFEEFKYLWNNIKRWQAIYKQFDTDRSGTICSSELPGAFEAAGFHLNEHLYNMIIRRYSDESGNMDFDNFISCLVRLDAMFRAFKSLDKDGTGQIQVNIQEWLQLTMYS
How it was run: (§1)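 Buffer 50 mM Tris pH 7.5/100 mM NaCl/1 mM DTT; enzyme + cpd preinc 25C; start w/ FRET substrate + CaCl2; kinetic 490/520 nm, 10 min; slopes 1-5 min; 4-PL IC50.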

Human Calpain 1/NS1 = target: T2, Human Calpain 1/NS1 (Homo sapiens, UniProt P07384); assay: Calpain inhibition continuous fluorescence (FRET) assay, Human Calpain 1/NS1; assay type: biochemical; conditions: read-out: Human Calpain 1/NS1 IC50
T2 sequence (P07384 1-714): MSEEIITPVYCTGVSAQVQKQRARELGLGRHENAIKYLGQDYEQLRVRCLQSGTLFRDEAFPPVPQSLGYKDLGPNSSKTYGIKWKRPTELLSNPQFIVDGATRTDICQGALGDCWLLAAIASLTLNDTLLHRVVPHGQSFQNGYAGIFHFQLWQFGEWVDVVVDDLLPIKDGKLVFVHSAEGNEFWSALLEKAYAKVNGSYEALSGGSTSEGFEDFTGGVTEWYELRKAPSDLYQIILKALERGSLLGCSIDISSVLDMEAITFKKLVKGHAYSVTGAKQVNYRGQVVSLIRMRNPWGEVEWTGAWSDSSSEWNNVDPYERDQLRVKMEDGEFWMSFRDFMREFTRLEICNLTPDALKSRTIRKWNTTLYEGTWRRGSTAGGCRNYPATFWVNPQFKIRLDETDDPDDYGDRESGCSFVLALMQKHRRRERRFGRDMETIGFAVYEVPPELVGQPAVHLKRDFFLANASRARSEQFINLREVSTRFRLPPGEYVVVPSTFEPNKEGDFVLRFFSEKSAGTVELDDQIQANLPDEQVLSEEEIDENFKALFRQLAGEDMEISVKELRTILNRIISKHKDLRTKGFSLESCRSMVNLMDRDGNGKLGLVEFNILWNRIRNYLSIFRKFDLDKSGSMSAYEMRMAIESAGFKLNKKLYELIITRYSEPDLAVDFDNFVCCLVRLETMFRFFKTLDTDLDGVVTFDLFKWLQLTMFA
T2 sequence (P04632 1-268 partner): T1 sequence (P04632 1-268 partner)
How it was run: as §1

Human Calpain 9/NS1 = target: T3, Human Calpain 9/NS1 (Homo sapiens, UniProt O14815); assay: Calpain inhibition continuous fluorescence (FRET) assay, Human Calpain 9/NS1; assay type: biochemical; conditions: read-out: Human Calpain 9/NS1 IC50
T3 sequence (O14815 1-690): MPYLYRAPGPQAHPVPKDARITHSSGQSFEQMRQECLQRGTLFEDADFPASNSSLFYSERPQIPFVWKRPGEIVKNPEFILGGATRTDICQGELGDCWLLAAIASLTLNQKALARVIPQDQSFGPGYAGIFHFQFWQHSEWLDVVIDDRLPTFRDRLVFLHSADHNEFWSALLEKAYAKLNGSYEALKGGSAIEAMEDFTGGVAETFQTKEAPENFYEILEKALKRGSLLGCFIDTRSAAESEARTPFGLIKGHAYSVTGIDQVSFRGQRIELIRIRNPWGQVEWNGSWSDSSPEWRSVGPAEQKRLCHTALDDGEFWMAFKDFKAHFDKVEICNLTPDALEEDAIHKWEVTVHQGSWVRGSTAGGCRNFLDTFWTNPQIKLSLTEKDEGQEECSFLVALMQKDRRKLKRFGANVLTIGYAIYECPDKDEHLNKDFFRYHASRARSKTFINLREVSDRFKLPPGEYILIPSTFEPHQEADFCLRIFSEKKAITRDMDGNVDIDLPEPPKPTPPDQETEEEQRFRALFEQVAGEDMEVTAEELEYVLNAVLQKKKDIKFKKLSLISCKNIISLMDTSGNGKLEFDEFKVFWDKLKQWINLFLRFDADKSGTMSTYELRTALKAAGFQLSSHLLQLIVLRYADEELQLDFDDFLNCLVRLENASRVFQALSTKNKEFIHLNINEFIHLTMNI
T3 sequence (P04632 1-268 partner): T1 sequence (P04632 1-268 partner)
How it was run: as §1

[3] = A23187-induced SBDP-150, western blot
[4] = Column D, A23187-induced SBDP-150

Structure (SMILES) | IC50 [1] | IC50 [2, 3] | IC50 (Human Calpain 2/NS1) | IC50 (Human Calpain 1/NS1) | IC50 (Human Calpain 9/NS1) | IC50 ([1]; Column E) | IC50 [2, 4] | IC50 (Human Calpain 2/NS1; Column B) | IC50 (Human Calpain 1/NS1; Column A) | IC50 (Human Calpain 9/NS1; Column C)
Cc1nc(-c2ccccc2F)c(C(=O)NC(C=O)Cc2ccccc2)o1 (centres unmarked) [Compound 402, 4-(2-fluorophenyl)-2-methyl-N-(1-oxo-3-phenylpropan-2-yl)oxazole-5-carboxamide] | > 25 µM | 10 to 25 µM | < 3 µM | < 3 µM | < 3 µM |  |  |  |  | 
Cn1ncc(C(=O)N[C@@H](Cc2ccccc2)C(=O)C(N)=O)c1-c1ccccn1 [Compound 164, (S)—N-(4-amino-3,4-dioxo-1-phenylbutan-2-yl)-1-methyl-5-(pyridin-2-yl)-1H-pyrazole-4-carboxamide] |  |  |  |  |  | > 25 µM | > 25 µM | < 3 µM | < 3 µM | < 3 µM
Cc1cccc(-c2nn(C)cc2C(=O)N[C@H](C=O)Cc2ccccc2)c1 [Compound 329, (S)-1-methyl-N-(1-oxo-3-phenylpropan-2-yl)-3-(M-tolyl)-1H-pyrazole-4-carboxamide] | > 25 µM | > 25 µM | < 3 µM | < 3 µM | < 3 µM |  |  |  |  | 
Cc1cccc(-c2nn(C)cc2C(=O)N[C@@H](Cc2ccccc2)C(=O)C(N)=O)c1 [Compound 163, (S)—N-(4-amino-3,4-dioxo-1-phenylbutan-2-yl)-1-methyl-3-(M-tolyl)-1H-pyrazole-4-carboxamide] |  |  |  |  |  | 10 to 25 µM | 10 to 25 µM | < 3 µM | < 3 µM | < 3 µM
CCc1nc(-c2ccccc2)c(C(=O)N[C@@H](Cc2ccccc2)C(=O)C(N)=O)o1 [Compound 226, (S)—N-(4-amino-3,4-dioxo-1-phenylbutan-2-yl)-2-ethyl-4-phenyloxazole-5-carboxamide] |  |  |  |  |  | < 10 µM | < 10 µM | < 3 µM | < 3 µM | < 3 µM
Cc1cc(C(=O)NC(Cc2ccccc2)C(=O)C(N)=O)n(-c2ncccc2F)n1 (centres unmarked) [Compound 348, N-(4-amino-3,4-dioxo-1-phenylbutan-2-yl)-1-(3-fluoropyridin-2-yl)-3-methyl-1H-pyrazole-5-carboxamide] | < 10 µM | > 25 µM | < 3 µM | < 3 µM | < 3 µM |  |  |  |  | 
Cn1cc(C(=O)N[C@@H](Cc2ccccc2)C(=O)C(N)=O)c(-c2cncnc2)n1 [Compound 173, (S)—N-(4-amino-3,4-dioxo-1-phenylbutan-2-yl)-1-methyl-3-(pyrimidin-5-yl)-1H-pyrazole-4-carboxamide] |  |  |  |  |  | > 25 µM | > 25 µM | < 3 µM | < 3 µM | < 3 µM
